Laboratory results as given in US10441744B2, “Flushable catheter affixed to a wash line activated by a microfluidic pressure switch” (priority 2013, dated 2019).

Tested on: cells attached to plastic surface
Assay: detachment and removal of cells from plastic surface by cleaning solutions
Type: cell-based
Experimental: The first step with solution A: Solution A contains proteases. Proteases can be used to digest proteins attached to plastic surface. For example, trypsin can be used to release a cell layer from plastic dishes. An application of trypsin (pre-warmed at 37° C.) can lead the single cell layer to detach from the plastic bottom in a few minutes. When incubated at 30° C. (may be similar to the temperature of the part of catheters out of body), trypsin may detach heavy, multilayer cells from plastic surface in 30 min. Biofilm often contains multi-layers of cells can be digested and detach the layers of cells from plastic surface 30 min after trypsin incubation at 37° C.
The second step with solution B: While most of the cells may be detached by protease treatment (such as trypsin), a few cells may remain on the plastic surface, particularly when the incubation temperature is not at optimal digestive temperature (such as 37° C. for trypsin) as may happen for the part of catheters out of patients. Solution B may be used to continue the treatment for two purposes. Solution B contains high ion concentration that may reduce attachment of cell to plastic surface at room temperature. High ion concentration such as addition of 0.45M NaCl may also further reduce proteins binding to the surface (Ouyang et al., 1997). The second purpose is to deactivate remaining trypsin as a buffer without calcium and magnesium. […] Although it is not necessary to understand the mechanism of action of the current invention, it is believed that a higher concentration of saline solution (0.45M NaCl or above), similar to elution buffer for ion chromatography, helps to clean cells and/or proteins still attached to plastic due to charge of the ions.
The third step with solution C: After most of the bacterial and cells detach from plastic and wash away, 70% ethanol may be applied to kill possible bacterial remains and/or denature proteins still attached on the plastic surface. […]

trypsin was tested, and the “time to detach heavy, multilayer cells from plastic surface” value (incubated at 30° C.) was 30 min, the “time to digest and detach layers of cells (biofilm multi-layers) from plastic surface” value (trypsin incubation at 37° C.) was 30 min and the “time for single cell layer to detach from the plastic bottom” value (trypsin pre-warmed at 37° C.) was “a few minutes”.
